Measurements reported in patent US20240368122A1, “JAK2 INHIBITORS AND METHODS OF USE THEREOF” (RELAY THERAPEUTICS, INC., priority 2021, published 2024).

What was measured:
[1] = test system: TF1 JAK2 V617F STAT3 reporter; test: Cellular TF1 STAT3 assay (luciferase reporter), JAK2 V617F; format: cell-based; conditions: Homo sapiens, TF-1, TF1 cells, JAK2 V617F, read-out: Cell PD-TF1 JAK2 V617F STAT3 (IC50)
Procedure, shortened: (§1)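 TF1 V617F JAK2 reporter cells, 10k/well; 10-pt 1:3 dose response from 10 mM 1000× DMSO stock; 18-20 h, 37 °C, 5% CO2; ONE-glo, 10 min RT; luminescence. Triplicate plates, DMSO vehicle.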

[2] = test system: TF1 JAK2 V617F STAT5 reporter; test: Cellular TF1 STAT5 assay (luciferase reporter), JAK2 V617F; format: cell-based; conditions: Homo sapiens, TF-1, TF1 cells, JAK2 V617F, read-out: Cell PD TF1 V617F STAT5 (IC50)
Procedure, shortened: as §1

[3] = biological target: T1, JAK2 JH2 WT (V536-D812) [W659A, W777A, F794H solubilizing mutations] (Homo sapiens, UniProt O60674, F794H/W659A/W777A); test: Surface Plasmon Resonance (SPR) binding assay, JAK2 JH2 domain
T1 construct: **JAK2 JH2 WT (V536-D812) [W659A, W777A, F794H solubilizing mutations]; C-thrombin-avi-His6; thrombin cleavage site (C); His6 (C); purchased Biortus
Procedure, shortened: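 Kinetics came from 1:1 fits of single-cycle runs at 20 °C: four 3-fold dilutions from 5 uM for JH1 or 500 nM for JH2, 60 s association, and 300 s or 1200 s dissociation respectively. Protein was freshly captured per compound in the presence of 10 uM stabilizer compound, with running buffer of pH 7.5 HEPES/NaCl/glycerol/DTT plus 2% DMSO.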

T1 sequence (O60674 536-812 W659A/W777A/F794H): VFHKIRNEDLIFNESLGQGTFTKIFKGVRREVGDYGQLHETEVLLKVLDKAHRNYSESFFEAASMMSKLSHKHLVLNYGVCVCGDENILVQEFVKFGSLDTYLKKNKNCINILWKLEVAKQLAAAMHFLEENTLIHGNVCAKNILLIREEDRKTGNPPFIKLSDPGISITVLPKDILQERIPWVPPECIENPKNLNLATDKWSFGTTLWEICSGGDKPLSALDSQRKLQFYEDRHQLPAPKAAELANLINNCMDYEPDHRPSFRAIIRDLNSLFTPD

| SMILES | IC50 [1] | IC50 [2] | Kd [3] |
| --- | --- | --- | --- |
| CNC(=O)c1nnc(NC(=O)C2CC2)cc1Nc1cccc(-c2ccc(C(=O)N(C)Cc3nc(CN(C)C)cs3)nc2)c1OC [Compound 253] | 5000 to 100000 nM | 500 to 5000 nM | 10 to 50 nM |
| CNC(=O)c1nnc(NC(=O)C2CC2)cc1Nc1cccc(-c2ccc(C3CN(Cc4ccn(C)n4)C3)nc2)c1OC [Compound 263] | 5000 to 100000 nM | 5000 to 100000 nM | 10 to 50 nM |
| CNC(=O)c1nnc(NC(=O)C2CC2)cc1Nc1cccc(-c2ccc(C3CN(Cc4cnn(C)c4)C3)nc2)c1OC [Compound 264] | 5000 to 100000 nM | 5000 to 100000 nM | 50 to 500 nM |
| CNC(=O)c1nnc(NC(=O)C2CC2)cc1Nc1ccc(C)c(-c2cn(C3CN(Cc4cccc(C#N)n4)C3)nn2)c1OC [Compound 268] | 500 to 5000 nM | 500 to 5000 nM | 0.01 to 10 nM |
| CNC(=O)c1nnc(NC(=O)C2CC2)cc1Nc1ccc(C)c(-c2cn(C3CN(Cc4cccc(C)n4)C3)nn2)c1OC [Compound 269] | 500 to 5000 nM | 500 to 5000 nM | 0.01 to 10 nM |
| CNC(=O)c1nnc(NC(=O)C2CC2)cc1Nc1cccc(-c2ccc(C(=O)N(C)Cc3ncc(CN(C)C)s3)nc2)c1OC [Compound 271] | 500 to 5000 nM | 500 to 5000 nM | 0.01 to 10 nM |
| CNC(=O)c1nnc(NC(=O)C2CC2)cc1Nc1ccc(C#N)c(-c2ccc(C(=O)N(C)Cc3cc(C#N)ccn3)cc2)c1OC [Compound 272] | 500 to 5000 nM | 500 to 5000 nM | 0.01 to 10 nM |
| CNC(=O)c1nnc(NC(=O)C2CC2)cc1Nc1cccc(-c2cnn(C3CN(Cc4cccc(NS(C)(=O)=O)n4)C3)c2)c1OC [Compound 273] | 500 to 5000 nM | 500 to 5000 nM | 0.01 to 10 nM |
| CNC(=O)c1nnc(NC(=O)C2CC2)cc1Nc1ccc(C)c(-c2ccc(C(=O)N(C)Cc3cn(C)nc3C)cn2)c1OC [Compound 278] | 500 to 5000 nM | 500 to 5000 nM | 0.01 to 10 nM |
| CNC(=O)c1nnc(NC(=O)C2CC2)cc1Nc1cccc(-c2ccc(C3CN(Cc4cc(C#N)ccn4)C3)nc2)c1OC [Compound 279] | 5000 to 100000 nM | 5000 to 100000 nM | 10 to 50 nM |
| CNC(=O)c1nnc(NC(=O)C2CC2)cc1Nc1cccc(-c2cncc(C3CN(Cc4ccccn4)C3)c2)c1OC [Compound 280] | 5000 to 100000 nM | 5000 to 100000 nM | 10 to 50 nM |
| CNCc1cnc(CN(C)C(=O)c2ccc(-c3cccc(Nc4cc(NC(=O)C5CC5)nnc4C(=O)NC)c3OC)cn2)s1 [Compound 282] | 500 to 5000 nM | 500 to 5000 nM | 0.01 to 10 nM |
| CNC(=O)c1nnc(NC(=O)C2CC2)cc1Nc1cccc(-c2ccc(C(=O)N(C)Cc3cnn(C4CC4)c3C)nc2)c1OC [Compound 284] | 500 to 5000 nM | 500 to 5000 nM | 0.01 to 10 nM |
| CNC(=O)c1nnc(NC(=O)C2CC2)cc1Nc1cccc(-c2ccc(C(=O)N(C)Cc3cn(C4CC4)nc3C)nc2)c1OC [Compound 285] | 500 to 5000 nM | 500 to 5000 nM | 0.01 to 10 nM |
| CNC(=O)c1nnc(NC(=O)C2CC2)cc1Nc1cccc(-c2ccc(C3CN(Cc4cccnc4C(F)F)C3)nc2)c1OC [Compound 288] | 5000 to 100000 nM | 5000 to 100000 nM | 50 to 500 nM |

The remaining lines, values ahead:

| IC50 [1] | IC50 [2] | Kd [3] | SMILES |
| --- | --- | --- | --- |
| 50 to 500 nM | 50 to 500 nM | 0.01 to 10 nM | CNC(=O)c1nnc(NC(=O)C2CC2)cc1Nc1cccc(-c2cnn(C3CN(Cc4nccc5cc[nH]c45)C3)c2)c1OC [Compound 254] |
| 50 to 500 nM | 50 to 500 nM | 0.01 to 10 nM | CNC(=O)c1nnc(NC(=O)C2CC2)cc1Nc1cccc(-c2cnn(C3CN(Cc4cccc(C#CCO)n4)C3)c2)c1OC [Compound 255] |
| 500 to 5000 nM | 500 to 5000 nM | 0.01 to 10 nM | COc1c(Nc2cc(NC(=O)C3CC3)nn3cc(C)nc23)ccc(C)c1-c1ccc(C(=O)N(C)Cc2cc(C#N)ccn2)nc1 [Compound 256] |
| 50 to 500 nM | 50 to 500 nM | 0.01 to 10 nM | CNC(=O)c1nnc(NC(=O)C2CC2)cc1Nc1cccc(-c2ccc(C(=O)N(C)Cc3cn(C)nc3OC)nc2)c1OC [Compound 257] |
| 50 to 500 nM | 50 to 500 nM | 0.01 to 10 nM | CNC(=O)c1nnc(NC(=O)C2CC2)cc1Nc1cccc(-c2cnn(C3CN(Cc4cccc(C5CCC5)n4)C3)c2)c1OC [Compound 258] |
| 50 to 500 nM | 50 to 500 nM | 0.01 to 10 nM | CNC(=O)c1nnc(NC(=O)C2CC2)cc1Nc1cccc(-c2cnn(C3CN(Cc4cccc(C#CC(C)(C)O)n4)C3)c2)c1OC [Compound 259] |
| 50 to 500 nM | 50 to 500 nM | 0.01 to 10 nM | CNC(=O)c1nnc(NC(=O)C2CC2)cc1Nc1cccc(-c2cnn(C3CN(Cc4cccc(NC(C)=O)n4)C3)c2)c1OC [Compound 260] |
| 50 to 500 nM | 500 to 5000 nM | 0.01 to 10 nM | CNC(=O)c1nnc(NC(=O)C2CC2)cc1Nc1cccc(-c2ccc(C(=O)N(C)Cc3nccc(C#N)n3)nc2)c1OC [Compound 261] |
| 500 to 5000 nM | 5000 to 100000 nM | 0.01 to 10 nM | COc1c(Nc2cc(NC(=O)C3CC3)nn3cc(C)nc23)ccc(C)c1-c1ccc(C(=O)N(C)Cc2cn(C)nc2C)nc1 [Compound 262] |
| 500 to 5000 nM | 500 to 5000 nM | 0.01 to 10 nM | CNC(=O)c1nnc(NC(=O)C2CC2)cc1Nc1cccc(-c2cnn(C3CN(Cc4cccc(C#CCN)n4)C3)c2)c1OC [Compound 265] |
| 500 to 5000 nM | 500 to 5000 nM | 0.01 to 10 nM | CNC(=O)c1nnc(NC(=O)C2CC2)cc1Nc1cccc(-c2ccc(C3CN(Cc4cccc(C#N)n4)C3)nc2)c1OC [Compound 266] |
| 50 to 500 nM | 50 to 500 nM | 0.01 to 10 nM | CNC(=O)c1nnc(NC(=O)C2CC2)cc1Nc1cccc(-c2cnn(C3CN(Cc4cccn(C)c4=O)C3)c2)c1OC [Compound 267] |
| 50 to 500 nM | 50 to 500 nM | 0.01 to 10 nM | CNC(=O)c1nnc(NC(=O)C2CC2)cc1Nc1cccc(-c2cnn(C3CN(Cc4cccc(C5(O)CC5)n4)C3)c2)c1OC [Compound 274] |
| 10 to 50 nM | 10 to 50 nM | 0.01 to 10 nM | CNC(=O)c1nnc(NC(=O)C2CC2)cc1Nc1cccc(-c2cnn(C3CN(Cc4cccc(C(=O)N(C)C)n4)C3)c2)c1OC [Compound 275] |
| 50 to 500 nM | 50 to 500 nM | 0.01 to 10 nM | CNC(=O)c1nnc(NC(=O)C2CC2)cc1Nc1cccc(-c2cnn(C3CN(Cc4cccc(C5CC5)n4)C3)c2)c1OC [Compound 276] |
| 50 to 500 nM | 50 to 500 nM | 0.01 to 10 nM | CNC(=O)c1nnc(NC(=O)C2CC2)cc1Nc1cccc(-c2cnn(C3CN(Cc4cccc(C(C)(C)C#N)n4)C3)c2)c1OC [Compound 277] |
| 50 to 500 nM | 50 to 500 nM | 0.01 to 10 nM | CC#Cc1cccc(CN2CC(n3cc(-c4cccc(Nc5cc(NC(=O)C6CC6)nnc5C(=O)NC)c4OC)cn3)C2)n1 [Compound 281] |
| 50 to 500 nM | 50 to 500 nM | 0.01 to 10 nM | CNC(=O)c1nnc(NC(=O)C2CC2)cc1Nc1cccc(-c2cnn(C3CN(Cc4cccc5ccnn45)C3)c2)c1OC [Compound 287] |
| 50 to 500 nM | 50 to 500 nM | 0.01 to 10 nM | CNC(=O)c1nnc(NC(=O)C2CC2)cc1Nc1ccc(C)c(-c2cnc(C(=O)N(C)Cc3cc(C(F)F)ccn3)c(F)c2)c1OC [Compound 289] |
| 50 to 500 nM | 50 to 500 nM | 0.01 to 10 nM | CNC(=O)c1nnc(NC(=O)C2CC2)cc1Nc1cccc(-c2cnn(C3CN(Cc4cccc(C5(C#N)CCC5)n4)C3)c2)c1OC [Compound 290] |
